Measured values reported in patent EP4737445A1, “NOVEL SATURATED HETEROCYCLE-SUBSTITUTED HETEROARYL-CARBONOHYDRAZONOYL DICYANIDE COMPOUND AND USE THEREOF” (Korea Institute of Science and Technology, priority 2023, dated 2025).

Key:
CYP2D6 = biological target: T1, CYP2D6 (Homo sapiens, UniProt P10635); test: CYP isoenzyme activity inhibition in human liver microsomes, CYP2D6; type: in vitro ADME; details: 10 µM compound; human liver microsomes 0.25 mg/mL; relative to control without compound
T1 construct: human liver microsomes (0.25 mg/mL); from tissue; host or cells: human liver microsomes
T1 sequence (P10635 whole entry): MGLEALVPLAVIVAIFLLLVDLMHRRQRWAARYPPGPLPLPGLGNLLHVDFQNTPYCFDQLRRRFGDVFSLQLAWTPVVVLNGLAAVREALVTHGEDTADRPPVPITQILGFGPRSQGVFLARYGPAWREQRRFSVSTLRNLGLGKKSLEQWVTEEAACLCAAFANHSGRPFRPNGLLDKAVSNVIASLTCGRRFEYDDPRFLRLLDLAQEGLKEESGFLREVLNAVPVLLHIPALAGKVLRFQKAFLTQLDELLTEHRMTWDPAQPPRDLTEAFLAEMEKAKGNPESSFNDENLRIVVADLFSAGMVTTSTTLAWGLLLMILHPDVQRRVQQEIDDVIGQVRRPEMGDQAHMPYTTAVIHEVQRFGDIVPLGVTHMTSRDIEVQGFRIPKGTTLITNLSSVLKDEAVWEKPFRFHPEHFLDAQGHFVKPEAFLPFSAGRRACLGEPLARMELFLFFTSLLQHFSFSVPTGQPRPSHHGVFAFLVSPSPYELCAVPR
Protocol: (§1) The CYP isoenzyme activity inhibitory effect by the compounds prepared according to Examples 1 to 46 was confirmed. Specifically, human liver microsomes (0.25 mg/mL), 0.1 M phosphate buffer solution (pH 7.4), a substrate drug cocktail of five drug metabolizing enzymes (Phenacetin 50 µM, Diclofenac 10 µM, S-mephenytoin 100 µM, Dextromethorphan 5 µM, and Midazolam 2.5 µM), and the compounds were added at concentrations of 0 or 10 µM, respectively, and pre-incubated at 37°C for 5 minutes, and then NADPH generation system solution was added and incubated at 37°C for an additional 15 minutes. Thereafter, an acetonitrile solution containing an internal standard (Terfenadine) was added to terminate the reaction, and after centrifugation for 5 minutes (14,000 rpm, 4°C), the supernatant was injected into an LC-MS/MS system to simultaneously analyze the metabolites of the substrate drugs, thereby evaluating the drug metabolizing enzyme inhibitory activity.
(§2) The metabolites of each CYP isoenzyme marker drug generated through the reaction were analyzed using a Shimadzu Nexera XR system and TSQ vantage (Thermo). A Kinetex C18 (2.1 × 100 mm, 2.6 µm, particle size; Phenomenex, USA) was used as the HPLC column, and (A) distilled water containing 0.1% formic acid and (B) acetonitrile containing 0.1% formic acid were used as mobile phases, and a gradient program as shown in Table 6 below was applied.
(§3) The generated metabolites were quantified using MRM (Multiple Reaction Monitoring) quantitative mode, and Xcalibur (version 1.6.1) was used for data analysis. To show the CYP isoenzyme activity inhibitory effect of the novel compounds prepared according to the Examples of the disclosure, the % activity of CYP isoenzymes relative to the control group without compound addition is shown in Table 6 below. Additionally, to confirm the difference in effect according to substituents, Comparative Compounds 1 and 5, which are two compounds that share a similar parent nucleus structure with Compounds 1 to 46 of the disclosure while Cy is substituted with aromatic heteroaryl instead of saturated heterocyclyl, were selected as comparative compounds and their activities are shown together.

Tau-BiFC cells = test: Cell viability (stained nuclei count) in Tau-BiFC cells; type: cell-based; details: @10 µM; Tau-BiFC cell line; Forskolin-only group = 100%
Protocol: To screen for new tau aggregation inhibitors, a Tau-BiFC cell model that facilitates observation of tau oligomer formation in living cells was used. Tau-BiFC cells were dispensed into a 384-well plate, and the next day, the compounds prepared according to Examples 1 to 46 were treated at concentrations of 1, 3, and 10 µM, respectively, together with Forskolin (treatment concentration 30 µM), which is a compound that induces tau aggregation by activating the tau phosphorylation enzyme PKA. After 48 hours, nuclei within cells were stained using Hoechst (treatment concentration 2 µg/mL), and BiFC fluorescence intensity was automatically quantified using Operetta (Perkin Elmer) to count the stained nuclei in each well from the entire plate. The group treated only with Forskolin, which induces tau aggregation, was set as the reference point with 100% tau aggregation state, and the effect was confirmed by the formula "BiFC fluorescence intensity by the compounds synthesized according to the Examples of the disclosure/(fluorescence intensity of the control group treated only with Forskolin that induces tau aggregation - fluorescence intensity of the untreated control group) × 100". In addition, the degree of cytotoxicity induced by the newly synthesized compounds was also calculated using the formula "(number of stained nuclei in the compound-treated group/number of stained nuclei in the Forskolin-treated group) × 100", with the group treated only with Forskolin as the reference point at 100% viability. From the treatment results, substances that inhibit intracellular tau aggregation were identified through screening from a series of candidates based on the criteria of 70% or more tau aggregation inhibition and 100% cell viability at a compound treatment concentration of 10 µM.
To confirm the tau aggregation inhibitory effect according to the concentration of the compounds screened in Experimental Example 1, the screened compounds were treated to Tau-BiFC cells at concentrations of 0.03, 0.1, 0.3, 1, 3, 10, and 30 µM, respectively, together with Forskolin (treatment concentration 30 µM), which is a tau aggregation-inducing substance. After 48 hours, cell images were examined to analyze the tau aggregation reaction and degree of cytotoxicity. The IC50 and toxicity of the compounds were analyzed by nonlinear regression analysis using Prism software (GraphPad). The calculated results for representative compounds are shown in Table 3 below: Tau aggregation inhibitory effect and cell viability of novel compounds.

CYP1A2 = biological target: T2, CYP1A2 (Homo sapiens, UniProt P05177); test: CYP isoenzyme activity inhibition in human liver microsomes, CYP1A2; type: in vitro ADME; details: 10 µM compound; human liver microsomes 0.25 mg/mL; relative to control without compound
T2 construct: human liver microsomes (0.25 mg/mL); from tissue; host or cells: human liver microsomes
T2 sequence (P05177 1-516): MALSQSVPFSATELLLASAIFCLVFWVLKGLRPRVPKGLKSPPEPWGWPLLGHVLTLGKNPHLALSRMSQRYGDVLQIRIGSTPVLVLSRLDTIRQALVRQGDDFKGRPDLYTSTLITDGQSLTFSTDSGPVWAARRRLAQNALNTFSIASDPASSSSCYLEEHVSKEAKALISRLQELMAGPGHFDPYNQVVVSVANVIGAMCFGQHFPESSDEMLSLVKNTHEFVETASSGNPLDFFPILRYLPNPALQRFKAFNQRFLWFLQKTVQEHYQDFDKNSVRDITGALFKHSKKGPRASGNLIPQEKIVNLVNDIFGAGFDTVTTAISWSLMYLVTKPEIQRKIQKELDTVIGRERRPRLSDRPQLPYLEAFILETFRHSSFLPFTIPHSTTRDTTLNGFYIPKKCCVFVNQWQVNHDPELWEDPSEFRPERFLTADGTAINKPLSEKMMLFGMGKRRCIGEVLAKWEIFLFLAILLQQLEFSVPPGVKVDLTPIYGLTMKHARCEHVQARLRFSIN
Protocol: as §1, §2, §3

SMILES	CYP2D6 (% activity) (CYP2D6)	Cell viability (% @10µM) (Tau-BiFC cells) [%]	CYP1A2 (% activity) (CYP1A2)
CN1CCN(c2nc3ccc(NN=C(C#N)C#N)cc3o2)CC1 [Compound 14, (2-(4-methylpiperazin-1-yl)benzo[d]oxazol-6-yl)carbonohydrazonoyl dicyanide]	> 100	100	89.7
N#CC(C#N)=NNc1ccc2nc(N3CCNCC3)oc2c1 [Compound 25, (2-(piperazin-1-yl)benzo[d]oxazol-6-yl)carbonohydrazonoyl dicyanide]	93.5	94	87
CC1CN(c2nc3ccc(NN=C(C#N)C#N)cc3o2)CC(C)O1 (stereo not drawn) [Compound 18, (2-(2,6-dimethylmorpholino)benzo[d]oxazol-6-yl)carbonohydrazonoyl dicyanide]	97	100	98.9
COC1CCN(c2nc3ccc(NN=C(C#N)C#N)cc3s2)CC1 [Compound 9, (2-(4-methoxypiperidin-1-yl)benzo[d]thiazol-6-yl)carbonohydrazonoyl dicyanide]	> 100	100	68.9
CC1CN(c2nc3ccc(NN=C(C#N)C#N)cc3o2)CCO1 (stereo not drawn) [Compound 15, (2-(2-methylmorpholino)benzo[d]oxazol-6-yl)carbonohydrazonoyl dicyanide]	> 100	100	80.2
CC(=O)N1CCN(c2nc3ccc(NN=C(C#N)C#N)cc3o2)CC1 [Compound 31, (2-(4-acetylpiperazin-1-yl)benzo[d]oxazol-6-yl)carbonohydrazonoyl dicyanide]	93.3	100	92.7
Cn1c(N2C3CCC2COC3)nc2cc(NN=C(C#N)C#N)ccc21 [Compound 35, (2-(3-oxa-8-azabicyclo[3.2.1]octan-8-yl)-1-methyl-1H-benzo[d]imidazol-5-yl)carbonohydrazonoyl dicyanide]	94.9	100	81.5
N#CC(C#N)=NNc1ccc2nc(NC(=O)N3CC4CCC(C3)O4)sc2c1 [Compound 40, (2-(8-oxa-3-azabicyclo[3.2.1]octane-3-carboxamido)benzo[d]thiazol-6-yl)carbonohydrazonoyl dicyanide]	88.6	98	80.2
CN1CCN(c2nc3ccc(NN=C(C#N)C#N)cc3s2)CC1 [Compound 8, (2-(4-methylpiperazin-1-yl)benzo[d]thiazol-6-yl)carbonohydrazonoyl dicyanide]	> 100	101	91.8
N#CC(C#N)=NNc1ccc2oc(N3CCOCC3)nc2c1 [Compound 3, (2-morpholinobenzo[d]oxazol-5-yl)carbonohydrazonoyl dicyanide]	> 100	100	99.9
Cn1c(N2CCOCC2)nc2ccc(NN=C(C#N)C#N)cc21 [Compound 5, (1-methyl-2-morpholino-1H-benzo[d]imidazol-6-yl)carbonohydrazonoyl dicyanide]	> 100	100	84.3
CCn1c(N2CCOCC2)nc2ccc(NN=C(C#N)C#N)cc21 [Compound 32, (1-ethyl-2-morpholino-1H-benzo[d]imidazol-6-yl)carbonohydrazonoyl dicyanide]	92.1	98	78.9
N#CC(C#N)=NNc1ccc2nc(N3CC4CCC(C3)O4)sc2c1 [Compound 23, (2-(8-oxa-3-azabicyclo[3.2.1]octan-3-yl)benzo[d]thiazol-6-yl)carbonohydrazonoyl dicyanide]	71.5	92	70.6
CC(C)N1CCN(c2nc3ccc(NN=C(C#N)C#N)cc3s2)CC1 [Compound 27, (2-(4-isopropylpiperazin-1-yl)benzo[d]thiazol-6-yl)carbonohydrazonoyl dicyanide]	92.3	99	95.1
CC(C)N1CCN(c2nc3ccc(NN=C(C#N)C#N)cc3o2)CC1 [Compound 28, (2-(4-isopropylpiperazin-1-yl)benzo[d]oxazol-6-yl)carbonohydrazonoyl dicyanide]	78	99	95.5
N#CC(C#N)=NNc1ccc2nc(NC(=O)N3CCOCC3)sc2c1 [Compound 38, (2-(morpholine-4-carboxamido)benzo[d]thiazol-6-yl)carbonohydrazonoyl dicyanide]	95.7	97	83.9
N#CC(C#N)=NNc1ccc2nc(N3CCNCC3)sc2c1 [Compound 24, (2-(piperazin-1-yl)benzo[d]thiazol-6-yl)carbonohydrazonoyl dicyanide]	74.2	95	65.1
N#CC(C#N)=NNc1ccc2nc(N3CCOCC3)sc2c1 [Compound 2, (2-morpholinobenzo[d]thiazol-6-yl)carbonohydrazonoyl dicyanide]	> 100	100	81.7
N#CC(C#N)=NNc1ccc2nc(N3C4CCC3COC4)sc2c1 [Compound 11, (2-(3-oxa-8-azabicyclo[3.2.1]octan-8-yl)benzo[d]thiazol-6-yl)carbonohydrazonoyl dicyanide]	98.6	100	83.7
Cn1c(N2CCOCC2)nc2cc(NN=C(C#N)C#N)ccc21 [Compound 6, (1-methyl-2-morpholino-1H-benzo[d]imidazol-5-yl)carbonohydrazonoyl dicyanide]	> 100	104	92.3
